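Growth conditions: 96-well plates. Treatment: test compound, 48 hours, 5 concentrations. Analysis: linear interpolation between bracketing concentrations; unreached endpoints set to highest concentration. GI50 is the concentration that inhibits growth by half.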 Active and inactive are the calls of the source. No stated cut-off is given here; in the data, active = GI50 up to about 1.1 µM and inactive = higher.
Legend:
Assay in all cases: NCI anticancer screen, dose series, 48 h
[1] = tested on: UO-31
[2] = tested on: MOLT-4
[3] = tested on: TK-10
[4] = tested on: HOP-92
[5] = tested on: KM12
[6] = tested on: RXF 393
[7] = tested on: LOX IMVI
[8] = tested on: COLO 205
[9] = tested on: OVCAR-5
[10] = tested on: SF-268
[11] = tested on: HOP-62
[12] = tested on: SN12C
[13] = tested on: HCT-116
[14] = tested on: SR
[15] = tested on: ACHN
[16] = tested on: SW-620
[17] = tested on: SF-539
[18] = tested on: HCC 2998
[19] = tested on: SK-OV-3
[20] = tested on: M14

Measured: GI50

CN(C)Cc1cc(/N=N/c2ccc(Cl)cc2)ccc1OC(=O)c1ccccc1
inactive: [1] 12.6 µM | [2] 8.85 µM | [3] 15.3 µM | [4] 2.9 µM | [5] 15.7 µM | [6] 14.5 µM | [7] 12.4 µM | [8] 18.4 µM | [9] 16.8 µM | [10] 19.2 µM | [11] 12.6 µM | [12] 14.6 µM | [13] 16.4 µM | [14] 12 µM | [15] 14.5 µM | [16] 16.9 µM | [17] 18.2 µM | [18] 15.3 µM

CN(C)/N=C(/c1nc2ccc(Cl)cc2nc1O)C(O)c1ccc(C(O)/C(=N\N(C)C)c2nc3ccc(Cl)cc3nc2O)cc1 (stereo unspecified)
inactive: [1] > 100 µM | [2] 52.4 µM | [3] > 100 µM | [4] 81.7 µM | [5] > 100 µM | [6] > 100 µM | [8] > 100 µM | [19] > 100 µM | [9] > 100 µM | [10] > 100 µM | [11] 93.1 µM | [12] > 100 µM | [13] > 100 µM | [20] > 100 µM | [14] 38 µM | [15] > 100 µM | [16] > 100 µM | [17] > 100 µM | [18] > 100 µM

COc1cc(C2C(C(=O)NCc3ccccc3)=C(C)NC(C)=C2C(=O)NCc2ccccc2)ccc1O
inactive: [1] 65.3 µM | [2] 20.4 µM | [3] 35.2 µM | [4] 31.4 µM | [6] 28.8 µM | [7] 32.6 µM | [9] 57.5 µM | [10] 34.9 µM | [12] 31.5 µM | [13] 44.7 µM | [20] 34.4 µM | [14] 20.2 µM | [15] 42.5 µM | [16] 37.5 µM | [17] 20.9 µM | [18] 23.6 µM

C(=C\Nc1ccc(Oc2ccccc2)cc1)/C=N/c1ccc(Oc2ccccc2)cc1
inactive: [1] 18.4 µM | [2] > 10 µM | [3] 18.7 µM | [4] 24.3 µM | [5] 16.4 µM | [6] 20 µM | [7] 15 µM | [8] 20 µM | [9] 25 µM | [10] 21 µM | [11] 20.7 µM | [12] 14.8 µM | [13] 17.4 µM | [14] 19.4 µM | [15] 19.6 µM | [16] 19 µM | [17] 16.4 µM | [18] 15.9 µM

— ChEMBL document CHEMBL1201862, “PubChem BioAssay data set” (2004)
